From paper PMC3679788, “Factors affecting antiretroviral pharmacokinetics in HIV-infected women with virologic suppression on combination antiretroviral therapy: a cross-sectional study” (BMC Infectious Diseases, 2013)
Like-named read-outs stand apart in the source and are kept apart here.

Legend:
[1] = Plasma Cmin and Cmax of PI/NNRTI in HIV-positive women on cART (LC-MS/MS); format: in vivo, human; conditions: for Cmin Intra-patient CV median (IQR) / Cmax median ratio to historical population mean (IQR) / Cmax n (%) >1.5 Historical pop mean (percent of participants) / Cmin median ratio to historical population mean (IQR) / Cmin n (%) >1.5 historical pop Mean (percent of participants) / Cmax Inter-patient CV / Cmin Inter-patient CV / Cmin Study participants median (IQR) / Cmin Mean (SD) / Cmax at 3 h / Cmax at 5 h / Cmax / Cmax at 2 h: HIV-positive women; for Cmin Intra-patient CV median (IQR): 3 weekly visits; for Cmax Inter-patient CV: from individual median Cmax; for Cmin Inter-patient CV: from individual median Cmin; for Cmin Study participants median (IQR) / Cmin Mean (SD) / Cmax at 3 h / Cmax at 5 h / Cmax / Cmax at 2 h: plasma; for Cmin Study participants median (IQR) / Cmin Mean (SD): pre-dose, in ng/mL; for Cmax at 3 h / Cmax at 5 h / Cmax / Cmax at 2 h: female, human, oral; for Cmax at 3 h: 3 hours post-dose; for intra-patient variability for Cmax, in words / intra-patient variability for Cmin, in words / inter-patient variability (CV) for both Cmin and Cmax, in words: compared among the regimens; for intra-patient variability for Cmax, in words / inter-patient variability (CV) for both Cmin and Cmax, in words: nevirapine and lopinavir/ritonavir as BID; for intra-patient variability for Cmin, in words: nevirapine as BID; for Cmax at 5 h: 600 mg, 5 hours post-dose; for Cmax at 2 h: 2 hours post-dose
Procedure: Patients were asked to fast from midnight of the previous night. One hour before their scheduled morning dose the pre-dose blood collection was drawn (Cmin t) (alternative arrangements were made if the patient took their drugs in the evening). […] Concentrations of the PIs and the NNRTIs in plasma were measured simultaneously by sensitive and selective, validated high-performance liquid chromatography coupled to tandem mass-spectroscopy (LC-MS/MS). All samples were analyzed at the pharmacokinetic laboratory at the Ottawa Hospital Research Institute in Ottawa, Canada. The PK endpoints for each patient were determined by taking the median of the three weekly values for the Cmin and Cmax. The rationale for measuring drug levels at three separate time points was that there is potentially intra-individual variability in drug levels, especially for PIs. Using the median value for the endpoints eliminated outliers. The three drug level measurements allowed for the calculation of intra-patient variability. […] Next, for each subject the ratio of their median Cmin and Cmax for their main PI or NNRTI to this published drug level was calculated and used as the primary outcome as previously reported by Burger et al. […] Inter-patient variability of Cmin and Cmax for each antiretroviral drug was assessed by calculating the coefficient of variation (CV) using each individual’s median Cmin and Cmax. […] These values are summarized using median and IQR of the individual CVs. […] Finally, linear regression models were fit to assess correlates of the square root-transformed Cmin and Cmax ratios. […] The regression models included indicator variables to account for the different antiretroviral medications and each potential correlate was included separately in an adjusted model. Statistical analyses were performed using SAS Version 9.2 (SAS Institute, Cary, North Carolina, USA).

[2] = cited from earlier work

## COC(=O)N[C@H](C(=O)N[C@@H](Cc1ccccc1)[C@@H](O)CN(Cc1ccc(-c2ccccn2)cc1)NC(=O)[C@@H](NC(=O)OC)C(C)(C)C)C(C)(C)C [Atazanavir boosted with ritonavir, atazanavir]
[1]; 300 QD boosted with ritonavir
  Cmin Intra-patient CV median (IQR): 26.3 (15.6-56.1)
  Cmax median ratio to historical population mean (IQR): 0.66 (0.51-0.85)
  Cmax n (%) >1.5 Historical pop mean (percent of participants): 0 (0.0%)
  Cmin median ratio to historical population mean (IQR): 0.97 (0.77-1.42)
  Cmin n (%) >1.5 historical pop Mean (percent of participants): 4 (22.2%)
  Cmax Inter-patient CV: 41.4%
  Cmin Inter-patient CV: 65.6%
  Cmin Mean (SD): 1065.6 (699.2)
[1]; 300 mg QD with ritonavir 100 mg
  Cmin Study participants median (IQR): 835 (663–1220)
[1]; 300 mg QD with ritonavir 100 mg, read-out: Cmax Study participants median (IQR)
  Cmax at 3 h: 3430 ng/mL
[1]; 300 QD boosted with ritonavir, read-out: Cmax Mean (SD)
  Cmax at 3 h: 3530 ng/mL

## O=C1Nc2ccc(Cl)cc2[C@@](C#CC2CC2)(C(F)(F)F)O1 [Efavirenz, efavirenz]
[2]; in vivo
  serum levels in women: higher
[1]; 600 QD
  Cmin Intra-patient CV median (IQR): 17.7 (10.5-25.1)
  Cmax median ratio to historical population mean (IQR): 0.79 (0.57-1.27)
  Cmax n (%) >1.5 Historical pop mean (percent of participants): 4 (25.0%)
  Cmin median ratio to historical population mean (IQR): 0.95 (0.67-1.95)
  Cmin n (%) >1.5 historical pop Mean (percent of participants): 6 (37.5%)
  Cmax Inter-patient CV: 52.4%
  Cmin Inter-patient CV: 55.0%
  Cmin Mean (SD): 2196.9 (1209.2)
[1]; 600 mg QD
  Cmin Study participants median (IQR): 1680 (1180–3450)
[1]
  intra-patient variability for Cmax, in words: lowest intra-patient variability
  intra-patient variability for Cmin, in words: lowest intra-patient variability
[1]; 600 mg QD, read-out: Cmax Study participants median (IQR)
  Cmax at 5 h: 3240 ng/mL
[1]; 600 QD, read-out: Cmax Mean (SD)
  Cmax at 5 h: 3930 ng/mL

## Cc1cccc(C)c1OCC(=O)N[C@@H](Cc1ccccc1)[C@@H](O)C[C@H](Cc1ccccc1)NC(=O)[C@H](C(C)C)N1CCCNC1=O [Lopinavir boosted with ritonavir, lopinavir]
[2]; in vivo
  increase in AUC in women: approximately 20%
[1]; 400 BID boosted with ritonavir
  Cmin Intra-patient CV median (IQR): 23.8 (12.8-75.8)
  Cmax n (%) >1.5 Historical pop mean (percent of participants): 0 (0.0%)
  Cmin n (%) >1.5 historical pop Mean (percent of participants): 3 (18.8%)
  Cmax Inter-patient CV: 32.8%
  Cmin Inter-patient CV: 44.7%
  Cmin Mean (SD): 6370.0 (2846.4)
[1]; 800 QD boosted with ritonavir
  Cmin Intra-patient CV median (IQR): 63.4 (35.2- 115)
  Cmax n (%) >1.5 Historical pop mean (percent of participants): 0 (0.0%)
  Cmin n (%) >1.5 historical pop Mean (percent of participants): 3 (75.0%)
  Cmax Inter-patient CV: 39.8%
  Cmin Inter-patient CV: 72.5%
  Cmin Mean (SD): 5356.2 (3882.3)
[1]; all doses of the drug pooled
  Cmax n (%) >1.5 Historical pop mean (percent of participants): 0 (0.0%)
  Cmin n (%) >1.5 historical pop Mean (percent of participants): 6 (30.0%)
[1]; 400 mg BID with ritonavir 100 mg
  Cmin Study participants median (IQR): 6660 (4360–7710)
[1]; 800 mg QD with ritonavir 200 mg
  Cmin Study participants median (IQR): 6445 (2452–8260)
[1]
  inter-patient variability (CV) for both Cmin and Cmax, in words: least inter-patient variability
  intra-patient variability for Cmax, in words: lowest intra-patient variability
[1]; 800 mg QD with ritonavir 200 mg, read-out: Cmax Study participants median (IQR)
  Cmax: 11700 ng/mL
[1]; 800 QD boosted with ritonavir, read-out: Cmax Mean (SD)
  Cmax: 11200 ng/mL

## Cc1ccnc2c1NC(=O)c1cccnc1N2C1CC1 [Nevirapine, nevirapine]
[2]; in vivo
  exposure in pregnant women: lower
  serum levels in women: higher
[1]; 200 BID
  Cmin Intra-patient CV median (IQR): 13.9 (10.2-27.8)
  Cmax median ratio to historical population mean (IQR): 0.96 (0.84-1.37)
  Cmax n (%) >1.5 Historical pop mean (percent of participants): 2 (18.2%)
  Cmin median ratio to historical population mean (IQR): 1.41 (0.91-1.93)
  Cmin n (%) >1.5 historical pop Mean (percent of participants): 5 (45.5%)
  Cmax Inter-patient CV: 37.8%
  Cmin Inter-patient CV: 45.4%
  Cmin Mean (SD): 5693.6 (2586.8)
[1]; 400 QD
  Cmin Intra-patient CV median (IQR): 21.3 (12.1-44.9)
  Cmax median ratio to historical population mean (IQR): 0.96 (0.72-1.40)
  Cmax n (%) >1.5 Historical pop mean (percent of participants): 1 (12.5%)
  Cmin median ratio to historical population mean (IQR): 2.08 (0.90-2.53)
  Cmin n (%) >1.5 historical pop Mean (percent of participants): 5 (62.5%)
  Cmax Inter-patient CV: 39.9%
  Cmin Inter-patient CV: 57.0%
  Cmin Mean (SD): 5027.9 (2867.2)
[1]; all doses of the drug pooled
  Cmax median ratio to historical population mean (IQR): 0.96 (0.81-1.37)
  Cmax n (%) >1.5 Historical pop mean (percent of participants): 3 (15.8%)
  Cmin median ratio to historical population mean (IQR): 1.62 (0.91-2.32)
  Cmin n (%) >1.5 historical pop Mean (percent of participants): 10 (52.6%)
[1]; 200 mg BID
  Cmin Study participants median (IQR): 5270 (3380–7190)
[1]; 400 mg QD
  Cmin Study participants median (IQR): 5995 (2590–7275)
[1]; compared among the antiretrovirals
  Cmin ratio to published population mean, in words: highest ratios
[1]
  inter-patient variability (CV) for both Cmin and Cmax, in words: least inter-patient variability
  intra-patient variability for Cmax, in words: lowest intra-patient variability
  intra-patient variability for Cmin, in words: lowest intra-patient variability
[1]; 200 mg, 200 mg BID, read-out: Cmax Study participants median (IQR)
  Cmax at 2 h: 5510 ng/mL
[1]; 200 mg, 200 BID, read-out: Cmax Mean (SD)
  Cmax at 2 h: 6490 ng/mL
[1]; 400 mg, 400 mg QD, read-out: Cmax Study participants median (IQR)
  Cmax at 2 h: 6400 ng/mL
[1]; 400 mg, 400 QD, read-out: Cmax Mean (SD)
  Cmax at 2 h: 6920 ng/mL

## CC(C)CN(C[C@@H](O)[C@H](Cc1ccccc1)NC(=O)O[C@H]1CO[C@H]2OCC[C@H]21)S(=O)(=O)c1ccc(N)cc1 [darunavir]
[2]; women versus men, product monographs
  increase in AUC in women: approximately 20%

## CC(C)(C)NC(=O)[C@@H]1C[C@@H]2CCCC[C@@H]2CN1C[C@@H](O)[C@H](Cc1ccccc1)NC(=O)[C@H](CC(N)=O)NC(=O)c1ccc2ccccc2n1 [saquinavir]
[2]; in vivo
  serum levels in women versus men: significantly higher in women than in men
